In EP1247803A2, “Indolinone compounds suitable for modulation of protein kinases” (Sugen, Inc., priority 1996, dated 1998):

Legend:
FLK-1 receptor = target: T1, FLK-1 receptor (Mus musculus, UniProt P35918); test: FLK-1 ELISA (kinase activity of the FLK-1 receptor in FLK-1/NIH3T3 cells, VEGF stimulated); assay type: cell-based
T1 construct: expressed in transfected cells; host or cells: NIH3T3 C7#3
Procedure, shortened: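 FLK-1-expressing NIH3T3 C7#3 cells, starved overnight in 0.1% FBS medium, were treated with compounds at a 1:200 final dilution (0.5% DMSO) for 2 h at 37 °C, with VEGF stimulation. FLK-1 kinase activity was read by ELISA on anti-rabbit IgG plates using affinity-purified anti-FLK-1 antiserum.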

MET = MET biochemical kinase assay; parameters: species or system human; concentration or dose not given beside the values
Procedure, shortened: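 Plates coated with anti-rabbit Fc bind a rabbit anti-MET antibody that captures receptor from cell lysates; unbound protein is washed off before compound and ATP-containing kinase buffer go in.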

T1 sequence (P35918 20-1345): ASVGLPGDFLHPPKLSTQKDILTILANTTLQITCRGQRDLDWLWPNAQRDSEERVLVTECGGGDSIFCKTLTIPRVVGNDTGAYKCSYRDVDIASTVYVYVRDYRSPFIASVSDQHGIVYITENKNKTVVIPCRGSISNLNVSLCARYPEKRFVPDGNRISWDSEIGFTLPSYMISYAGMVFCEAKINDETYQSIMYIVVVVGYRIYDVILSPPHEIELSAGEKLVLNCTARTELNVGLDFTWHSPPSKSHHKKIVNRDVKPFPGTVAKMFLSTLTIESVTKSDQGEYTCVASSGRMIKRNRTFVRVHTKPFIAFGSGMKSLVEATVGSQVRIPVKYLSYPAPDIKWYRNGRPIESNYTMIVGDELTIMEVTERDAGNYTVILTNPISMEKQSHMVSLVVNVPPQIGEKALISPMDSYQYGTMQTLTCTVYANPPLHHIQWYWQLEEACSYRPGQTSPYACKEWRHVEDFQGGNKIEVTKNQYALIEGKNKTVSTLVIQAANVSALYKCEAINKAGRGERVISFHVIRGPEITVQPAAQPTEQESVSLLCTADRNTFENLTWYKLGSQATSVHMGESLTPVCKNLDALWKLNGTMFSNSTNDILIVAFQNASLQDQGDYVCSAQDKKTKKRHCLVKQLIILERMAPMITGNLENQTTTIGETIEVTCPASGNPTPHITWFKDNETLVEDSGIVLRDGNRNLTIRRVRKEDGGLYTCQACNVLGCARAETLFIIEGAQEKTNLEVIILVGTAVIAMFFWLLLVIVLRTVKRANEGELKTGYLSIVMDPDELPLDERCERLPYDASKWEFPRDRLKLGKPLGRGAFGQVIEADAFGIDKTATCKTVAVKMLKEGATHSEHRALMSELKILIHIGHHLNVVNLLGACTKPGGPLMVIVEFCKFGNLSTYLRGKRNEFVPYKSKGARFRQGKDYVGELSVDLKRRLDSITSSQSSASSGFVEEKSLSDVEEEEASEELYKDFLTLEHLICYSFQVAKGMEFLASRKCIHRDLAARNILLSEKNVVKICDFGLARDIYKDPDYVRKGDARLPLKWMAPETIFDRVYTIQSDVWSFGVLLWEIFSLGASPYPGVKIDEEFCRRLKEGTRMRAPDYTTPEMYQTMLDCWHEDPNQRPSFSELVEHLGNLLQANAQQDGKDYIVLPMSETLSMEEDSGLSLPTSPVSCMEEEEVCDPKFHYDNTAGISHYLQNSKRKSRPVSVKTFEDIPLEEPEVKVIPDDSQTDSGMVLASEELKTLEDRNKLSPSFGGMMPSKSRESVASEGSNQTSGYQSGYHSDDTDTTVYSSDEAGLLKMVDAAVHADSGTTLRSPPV

Compound	Fik Kinase %Inhibition (FLK-1 receptor) [%]	Met Kinase % Inhibition (MET) [%]
CNS(=O)(=O)c1ccc2c(c1)C(=Cc1[nH]c(C)c(Br)c1Br)C(=O)N2 [10717/D11]	11.6	55.3
CCOc1ccccc1C=C1C(=O)Nc2ccc(S(=O)(=O)Nc3ccc(C(F)(F)F)cc3)cc21 [10717/E02]	17.9	24.0
O=C1Nc2ccc(S(=O)(=O)Nc3ccc(C(F)(F)F)cc3)cc2C1=Cc1cccs1 [10717/E03]	19.0	52.2
Cn1cccc1C=C1C(=O)Nc2ccc(S(=O)(=O)Nc3ccc(C(F)(F)F)cc3)cc21 [10717/E04]	6.1	29.4
O=C1Nc2ccc(S(=O)(=O)Nc3ccc(C(F)(F)F)cc3)cc2C1=Cc1ccc(F)cc1 [10717/E05]	13.2	39.1
O=C1Nc2ccc(S(=O)(=O)Nc3ccc(C(F)(F)F)cc3)cc2C1=Cc1c[nH]c2ccccc12 [10717/E06]	7.5	24.8
Cc1ccc(C=C2C(=O)Nc3ccc(S(=O)(=O)Nc4ccc(C(F)(F)F)cc4)cc32)s1 [10717/E07]	15.3	41.0
O=C1Nc2ccc(S(=O)(=O)Nc3ccc(C(F)(F)F)cc3)cc2C1=Cc1ccc(Br)cc1 [10717/E08]	13.2	51.7
CC(C)(C)c1cc(C=C2C(=O)Nc3ccc(CCCl)cc32)cc([N+](=O)[O-])c1O [10722/G02]	15.1	43.0
O=C1Nc2ccc(CCCl)cc2C1=Cc1c(O)cc(O)cc1O [10722/G03]	5.3	52.2
O=C1Nc2ccc(CCCl)cc2C1=Cc1ccc([N+](=O)[O-])s1 [10722/G04]	7.2	63.2
O=C1Nc2ccc(CCCl)cc2C1=Cc1ccc(C(=O)O)cc1 [10722/G05]	10.8	9.7
O=C1Nc2ccc(CCCl)cc2C1=Cc1ccc(F)cc1F [10722/G06]	7.4	12.2
Cc1cc(C=C2C(=O)Nc3ccc(CCCl)cc32)cc(C)c1O [10722/G07]	8.0	41.2
CC(C)(C)c1cc(C=C2C(=O)Nc3ccc(CCCl)cc32)cc(Cl)c1O [10722/G08]	8.2	66.1
O=C1Nc2ccc(CCCl)cc2C1=Cc1csc([N+](=O)[O-])c1 [10722/G09]	6.1	51.0
CCCCN(CCCC)c1ccc(C=C2C(=O)Nc3ccc(CCCl)cc32)cc1 [10722/G10]	-1.7	27.0
O=C1Nc2ccc(CCCl)cc2C1=Cc1ccc(C(F)(F)F)cc1 [10722/G11]	0.6	35.3
O=C1Nc2c(Br)cc(Br)cc2C1=Cc1ccc(O)c(O)c1O [10723/A02]	-5.5	100.8
COc1cccc(C=C2C(=O)Nc3c(Br)cc(Br)cc32)c1O [10723/A03]	1.2	76.5
O=C1Nc2c(Br)cc(Br)cc2C1=Cc1cc(O)c(O)c(Br)c1 [10723/A04]	27.2	97.9

Compound	Fik Kinase %Inhibition (FLK-1 receptor) [%]	Met Kinase % Inhibition (MET) [%]
CC(=O)Oc1ccc(C=C2C(=O)Nc3c(Br)cc(Br)cc32)cc1OC(C)=O [10723/A05]	-17.8	75.7
Cc1cc(C=C2C(=O)Nc3c(Br)cc(Br)cc32)ccc1O [10723/A06]	8.6	79.1
O=C1Nc2c(Br)cc(Br)cc2C1=Cc1ccccc1Br [10723/A07]	-6.1	63.2
O=C1Nc2c(Br)cc(Br)cc2C1=Cc1ccc(O)cc1O [10723/A08]	-12.9	77.3
COc1ccc(C=C2C(=O)Nc3c(Br)cc(Br)cc32)c(O)c1 [10723/A09]	-1.0	85.9
O=C1Nc2c(Br)cc(Br)cc2C1=Cc1cccc(Br)c1 [10723/A10]	-3.1	62.1
CC(C)(C)c1cc(C=C2C(=O)Nc3c(Br)cc(Br)cc32)c(O)c(C(C)(C)C)c1 [10723/A11]	42.9	60.0
O=C1Nc2ccc(I)cc2C1=Cc1ccc(O)c(O)c1O [10723/B02]	-0.3	100.3
COc1cccc(C=C2C(=O)Nc3ccc(I)cc32)c1O [10723/B03]	7.1	82.5
O=C1Nc2ccc(I)cc2C1=Cc1cc(O)c(O)c(Br)c1 [10723/B04]	18.7	90.6
CC(=O)Oc1ccc(C=C2C(=O)Nc3ccc(I)cc32)cc1OC(C)=O [10723/B05]	-15.4	85.1
Cc1cc(C=C2C(=O)Nc3ccc(I)cc32)ccc1O [10723/B06]	31.8	90.6
O=C1Nc2ccc(I)cc2C1=Cc1ccccc1Br [10723/B07]	6.5	86.7
O=C1Nc2ccc(I)cc2C1=Cc1ccc(O)cc1O [10723/B08]	1.0	82.8
COc1ccc(C=C2C(=O)Nc3ccc(I)cc32)c(O)c1 [10723/B09]	2.7	57.7
O=C1Nc2ccc(I)cc2C1=Cc1cccc(Br)c1 [10723/B10]	5.8	88.5
CC(C)(C)c1cc(C=C2C(=O)Nc3ccc(I)cc32)c(O)c(C(C)(C)C)c1 [10723/B11]	6.3	62.6
Cc1c(Br)ccc2c1C(=Cc1ccc(O)c(O)c1O)C(=O)N2 [10723/C02]	9.6	100.6
COc1cccc(C=C2C(=O)Nc3ccc(Br)c(C)c32)c1O [10723/C03]	-3.1	88.8
Cc1c(Br)ccc2c1C(=Cc1cc(O)c(O)c(Br)c1)C(=O)N2 [10723/C04]	8.8	91.9
CC(=O)Oc1ccc(C=C2C(=O)Nc3ccc(Br)c(C)c32)cc1OC(C)=O [10723/C05]	5.6	73.1

Compound	Fik Kinase %Inhibition (FLK-1 receptor) [%]	Met Kinase % Inhibition (MET) [%]
Cc1cc(C=C2C(=O)Nc3ccc(Br)c(C)c32)ccc1O [10723/C06]	17.8	63.4
Cc1c(Br)ccc2c1C(=Cc1ccccc1Br)C(=O)N2 [10723/C07]	20.9	44.3
Cc1c(Br)ccc2c1C(=Cc1ccc(O)cc1O)C(=O)N2 [10723/C08]	-35.5	83.0
COc1ccc(C=C2C(=O)Nc3ccc(Br)c(C)c32)c(O)c1 [10723/C09]	-22.3	84.6
Cc1c(Br)ccc2c1C(=Cc1cccc(Br)c1)C(=O)N2 [10723/C10]	9.5	43.8
Cc1c(Br)ccc2c1C(=Cc1cc(C(C)(C)C)cc(C(C)(C)C)c1O)C(=O)N2 [10723/C11]	9.5	47.0
CNS(=O)(=O)c1ccc2c(c1)C(=Cc1ccc(O)c(O)c1O)C(=O)N2 [10723/D02]	2.0	93.0
CNS(=O)(=O)c1ccc2c(c1)C(=Cc1cccc(OC)c1O)C(=O)N2 [10723/D03]	-14.7	69.4
CNS(=O)(=O)c1ccc2c(c1)C(=Cc1cc(O)c(O)c(Br)c1)C(=O)N2 [10723/D04]	15.2	97.7
CNS(=O)(=O)c1ccc2c(c1)C(=Cc1ccc(OC(C)=O)c(OC(C)=O)c1)C(=O)N2 [10723/D05]	-6.1	54.5
CNS(=O)(=O)c1ccc2c(c1)C(=Cc1ccc(O)c(C)c1)C(=O)N2 [10723/D06]	17.6	60.0
CNS(=O)(=O)c1ccc2c(c1)C(=Cc1ccccc1Br)C(=O)N2 [10723/D07]	15.8	21.9
CNS(=O)(=O)c1ccc2c(c1)C(=Cc1ccc(O)cc1O)C(=O)N2 [10723/D08]	-4.5	53.5
CNS(=O)(=O)c1ccc2c(c1)C(=Cc1ccc(OC)cc1O)C(=O)N2 [10723/D09]	50.4	62.6
CNS(=O)(=O)c1ccc2c(c1)C(=Cc1cccc(Br)c1)C(=O)N2 [10723/D10]	6.5	38.1
CNS(=O)(=O)c1ccc2c(c1)C(=Cc1cc(C(C)(C)C)cc(C(C)(C)C)c1O)C(=O)N2 [10723/D11]	14.8	42.0
O=C1Nc2ccc(S(=O)(=O)Nc3ccc(C(F)(F)F)cc3)cc2C1=Cc1ccc(O)c(O)c1O [10723/E02]	8.1	97.9
COc1cccc(C=C2C(=O)Nc3ccc(S(=O)(=O)Nc4ccc(C(F)(F)F)cc4)cc32)c1O [10723/E03]	8.7	76.8
O=C1Nc2ccc(S(=O)(=O)Nc3ccc(C(F)(F)F)cc3)cc2C1=Cc1cc(O)c(O)c(Br)c1 [10723/E04]	30.7	94.5
